The text below walks through data of patent publication US9212182B2, “Bicyclic sulfonamide compounds as sodium channel inhibitors” (AMGEN INC., priority 2013, dated 2015).

pIC50: −log10 of the molar value.

The test deals with Nav 1.7 (Homo sapiens (Human), UniProt Q15858). Kind of test: in-vitro Nav 1.7 PX (IC50). It is filed as cell-based. Particulars: in-vitro Nav 1.7 PX data.
Chain of Nav 1.7 (Q15858 whole entry): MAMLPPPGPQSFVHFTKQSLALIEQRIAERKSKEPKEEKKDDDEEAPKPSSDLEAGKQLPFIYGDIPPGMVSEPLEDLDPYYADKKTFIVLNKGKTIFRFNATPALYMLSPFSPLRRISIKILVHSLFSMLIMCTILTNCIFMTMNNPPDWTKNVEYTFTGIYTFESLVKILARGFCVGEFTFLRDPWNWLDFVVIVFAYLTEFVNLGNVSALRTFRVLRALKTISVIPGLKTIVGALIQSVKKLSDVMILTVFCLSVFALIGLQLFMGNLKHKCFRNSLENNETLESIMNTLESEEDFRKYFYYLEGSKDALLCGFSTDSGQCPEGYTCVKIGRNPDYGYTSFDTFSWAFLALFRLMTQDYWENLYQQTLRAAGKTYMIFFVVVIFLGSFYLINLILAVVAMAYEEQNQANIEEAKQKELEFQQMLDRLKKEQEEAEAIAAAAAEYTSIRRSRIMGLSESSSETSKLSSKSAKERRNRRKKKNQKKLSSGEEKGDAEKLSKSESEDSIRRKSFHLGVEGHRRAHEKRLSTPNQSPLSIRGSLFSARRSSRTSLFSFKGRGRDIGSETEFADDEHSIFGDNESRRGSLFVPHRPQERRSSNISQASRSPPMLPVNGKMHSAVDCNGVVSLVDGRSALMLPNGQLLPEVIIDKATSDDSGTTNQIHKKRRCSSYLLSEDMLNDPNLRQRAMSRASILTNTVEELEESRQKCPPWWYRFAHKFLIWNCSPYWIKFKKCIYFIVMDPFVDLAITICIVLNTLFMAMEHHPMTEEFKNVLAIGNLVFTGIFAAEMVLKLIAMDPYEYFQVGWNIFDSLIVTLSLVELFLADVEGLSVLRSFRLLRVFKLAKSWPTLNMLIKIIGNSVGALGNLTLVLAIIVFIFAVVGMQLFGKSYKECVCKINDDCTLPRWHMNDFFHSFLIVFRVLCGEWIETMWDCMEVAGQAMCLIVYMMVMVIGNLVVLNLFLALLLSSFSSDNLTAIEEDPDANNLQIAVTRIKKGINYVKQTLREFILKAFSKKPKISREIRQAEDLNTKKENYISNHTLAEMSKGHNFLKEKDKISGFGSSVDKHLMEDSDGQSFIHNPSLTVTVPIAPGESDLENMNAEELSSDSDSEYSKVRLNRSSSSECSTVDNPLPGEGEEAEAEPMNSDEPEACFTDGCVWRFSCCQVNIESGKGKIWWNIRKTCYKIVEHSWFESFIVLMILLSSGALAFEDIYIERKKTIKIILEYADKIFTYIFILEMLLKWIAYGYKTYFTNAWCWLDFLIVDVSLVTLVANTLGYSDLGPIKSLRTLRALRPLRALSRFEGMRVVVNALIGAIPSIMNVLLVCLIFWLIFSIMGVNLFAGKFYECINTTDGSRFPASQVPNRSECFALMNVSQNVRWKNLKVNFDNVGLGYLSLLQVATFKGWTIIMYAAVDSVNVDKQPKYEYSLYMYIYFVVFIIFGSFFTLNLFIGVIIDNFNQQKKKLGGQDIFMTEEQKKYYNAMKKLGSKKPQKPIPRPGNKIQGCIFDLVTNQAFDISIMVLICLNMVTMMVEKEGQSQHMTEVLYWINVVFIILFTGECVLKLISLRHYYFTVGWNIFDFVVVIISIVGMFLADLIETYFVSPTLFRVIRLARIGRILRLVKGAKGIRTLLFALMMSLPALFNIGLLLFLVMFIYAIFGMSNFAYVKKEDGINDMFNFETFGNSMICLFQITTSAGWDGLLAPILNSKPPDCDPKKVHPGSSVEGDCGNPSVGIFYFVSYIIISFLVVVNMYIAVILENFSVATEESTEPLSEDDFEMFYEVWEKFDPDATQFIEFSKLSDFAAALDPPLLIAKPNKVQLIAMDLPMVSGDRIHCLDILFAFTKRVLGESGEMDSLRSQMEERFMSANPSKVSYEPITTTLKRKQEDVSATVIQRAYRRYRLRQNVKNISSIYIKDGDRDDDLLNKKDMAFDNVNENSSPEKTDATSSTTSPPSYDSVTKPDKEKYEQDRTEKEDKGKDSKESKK
For orientation: pIC50 means −log10 of the IC50, conventionally taken in molar units. In the case of `COc1cc(-c2ccc(C(F)(F)F)cc2)c(F)cc1-n1c(=O)ccc2cc(S(=O)(=O)Nc3cccnn3)ccc21` [Example 795, 1-(2-fluoro-5-methoxy-4′-(trifluoromethyl)-4-biphenylyl)-2-oxo-N-3-pyridazinyl-1,2-dihydro-6-quinolinesulfonamide], the pIC50 is 7.51.

In the case of `COc1cc(-c2ccc(C(F)(F)F)cc2)c(F)cc1-n1c(=O)ccc2cc(S(=O)(=O)Nc3ncc(F)cn3)ccc21` [Example 796, 1-(2-fluoro-5-methoxy-4′-(trifluoromethyl)-4-biphenylyl)-N-(5-fluoro-2-pyrimidinyl)-2-oxo-1,2-dihydro-6-quinolinesulfonamide], the pIC50 is 7.48.

In turn, `COc1cc(-c2ccc(C(F)(F)F)cc2)c(F)cc1-n1c(=O)ccc2cc(S(=O)(=O)Nc3ncccn3)ccc21` [Example 797, 1-(2-fluoro-5-methoxy-4′-(trifluoromethyl)-4-biphenylyl)-2-oxo-N-2-pyrimidinyl-1,2-dihydro-6-quinolinesulfonamide] gave a pIC50 of 7.37.

In turn, `COc1cc(-c2ccc(C(F)(F)F)cc2)c(F)cc1-n1c(=O)ccc2cc(S(=O)(=O)Nc3cc(C)ncn3)ccc21` [Example 798, 1-(2-fluoro-5-methoxy-4′-(trifluoromethyl)-4-biphenylyl)-N-(6-methyl-4-pyrimidinyl)-2-oxo-1,2-dihydro-6-quinolinesulfonamide] had a negative-log IC50 (pIC50) of 7.31.

As for `COc1cc(-c2ccc(C(F)(F)F)cc2)c(F)cc1-n1c(=O)ccc2cc(S(=O)(=O)Nc3ccnc(C)n3)ccc21` [Example 799, 1-(2-fluoro-5-methoxy-4′-(trifluoromethyl)-4-biphenylyl)-N-(2-methyl-4-pyrimidinyl)-2-oxo-1,2-dihydro-6-quinolinesulfonamide], the pIC50 is 7.23.

`COc1cc(-c2ccc(Cl)cn2)c(F)cc1-n1c(=O)ccc2cc(S(=O)(=O)Nc3ccon3)ccc21` [Example 800, 1-(4-(5-chloro-2-pyridinyl)-5-fluoro-2-methoxyphenyl)-N-3-isoxazolyl-2-oxo-1,2-dihydro-6-quinolinesulfonamide]: the pIC50 is 6.60.

For `COc1cc(-c2cccc(C(F)(F)F)c2)c(F)cc1-n1c(=O)ccc2cc(S(=O)(=O)Nc3ncc(F)cn3)ccc21` [Example 802, 1-(2-fluoro-5-methoxy-3′-(trifluoromethyl)-4-biphenylyl)-N-(5-fluoro-2-pyrimidinyl)-2-oxo-1,2-dihydro-6-quinolinesulfonamide], the pIC50 is 7.68.

`COc1cc(-c2cccc(C(F)(F)F)c2)c(F)cc1-n1c(=O)ccc2cc(S(=O)(=O)Nc3ccnc(C)n3)ccc21` [Example 804, 1-(2-fluoro-5-methoxy-3′-(trifluoromethyl)-4-biphenylyl)-N-(2-methyl-4-pyrimidinyl)-2-oxo-1,2-dihydro-6-quinolinesulfonamide] showed a pIC50 of 7.85.

The compound `COc1cccc(-c2cc(OC)c(-n3c(=O)ccc4cc(S(=O)(=O)Nc5ccon5)ccc43)cc2F)n1` [Example 805, 1-(5-fluoro-2-methoxy-4-(6-methoxy-2-pyridinyl)phenyl)-N-3-isoxazolyl-2-oxo-1,2-dihydro-6-quinolinesulfonamide] gave a negative logarithm of the IC50 (pIC50) of 7.15.

Compound `COc1cc(-c2cccc(C(F)(F)F)c2)c(F)cc1-n1c(=O)ccc2cc(S(=O)(=O)Nc3ncco3)ccc21` [Example 806, 1-(2-fluoro-5-methoxy-3′-(trifluoromethyl)-4-biphenylyl)-N-1,3-oxazol-2-yl-2-oxo-1,2-dihydro-6-quinolinesulfonamide] gave a pIC50 of 7.55.

For the compound `COc1ccnc(-c2cc(OC)c(-n3c(=O)ccc4cc(S(=O)(=O)Nc5ccon5)ccc43)cc2F)n1` [Example 808, 1-(5-fluoro-2-methoxy-4-(4-methoxy-2-pyrimidinyl)phenyl)-N-3-isoxazolyl-2-oxo-1,2-dihydro-6-quinolinesulfonamide], the pIC50 was 5.51.

As to `COc1cc(-c2ccc3c(c2)OCC3)ccc1-n1c(=O)ccc2cc(S(=O)(=O)Nc3ccon3)ccc21` [Example 809, 1-(4-(2,3-dihydro-1-benzofuran-6-yl)-2-methoxyphenyl)-N-3-isoxazolyl-2-oxo-1,2-dihydro-6-quinolinesulfonamide], the pIC50 is 6.91.

`CCc1cccc(-c2ccc(-n3c(=O)ccc4cc(S(=O)(=O)Nc5ccon5)ccc43)c(OC)c2)c1` [Example 810, 1-(3′-ethyl-3-methoxy-4-biphenylyl)-N-3-isoxazolyl-2-oxo-1,2-dihydro-6-quinolinesulfonamide] gave a pIC50 of 7.82.

`COc1cc(OC)cc(-c2ccc(-n3c(=O)ccc4cc(S(=O)(=O)Nc5ccon5)ccc43)c(OC)c2)c1` [Example 811, N-3-isoxazolyl-2-oxo-1-(3,3′,5′-trimethoxy-4-biphenylyl)-1,2-dihydro-6-quinolinesulfonamide] gave a pIC50 of 7.18.

On to `COc1cc(-c2ccc(C)c(C)c2)ccc1-n1c(=O)ccc2cc(S(=O)(=O)Nc3ccon3)ccc21` [Example 812, N-3-isoxazolyl-1-(3-methoxy-3′,4′-dimethyl-4-biphenylyl)-2-oxo-1,2-dihydro-6-quinolinesulfonamide], for which the pIC50 is 7.14.

Regarding `COc1cc(-c2cc(Cl)cnc2OC)ccc1-n1c(=O)ccc2cc(S(=O)(=O)Nc3ccon3)ccc21` [Example 813, 1-(4-(5-chloro-2-methoxy-3-pyridinyl)-2-methoxyphenyl)-N-3-isoxazolyl-2-oxo-1,2-dihydro-6-quinolinesulfonamide], the pIC50 is 7.00.

Turning to `COc1cc(-c2cnc(OC)c(Cl)c2)ccc1-n1c(=O)ccc2cc(S(=O)(=O)Nc3ccon3)ccc21` [Example 814, 1-(4-(5-chloro-6-methoxy-3-pyridinyl)-2-methoxyphenyl)-N-3-isoxazolyl-2-oxo-1,2-dihydro-6-quinolinesulfonamide], the pIC50 was 7.46.

On to `COc1cc(-c2cccc(Cl)c2OC)ccc1-n1c(=O)ccc2cc(S(=O)(=O)Nc3ccon3)ccc21` [Example 815, 1-(3′-chloro-2′,3-dimethoxy-4-biphenylyl)-N-3-isoxazolyl-2-oxo-1,2-dihydro-6-quinolinesulfonamide], for which the pIC50 is 7.25.

Consider `COc1cc(Cl)ccc1-c1ccc(-n2c(=O)ccc3cc(S(=O)(=O)Nc4ccon4)ccc32)c(OC)c1` [Example 816, 1-(4′-chloro-2′,3-dimethoxy-4-biphenylyl)-N-3-isoxazolyl-2-oxo-1,2-dihydro-6-quinolinesulfonamide], for which the pIC50 is 7.57.

Compound `COc1cc(-c2cccc(C(F)(F)F)c2)c(F)cc1-n1c(=O)ccc2cc(S(=O)(=O)[N-][n+]3ccccc3)ccc21` [Example 817, ((1-(2-fluoro-5-methoxy-3′-(trifluoromethyl)-4-biphenylyl)-2-oxo-1,2-dihydro-6-quinolinyl)sulfonyl)(1-pyridiniumyl)azanide] showed a pIC50 of 5.34.

Compound `COc1cc(-c2cccc(F)c2)ccc1-n1c(=O)ccc2cc(S(=O)(=O)Nc3ccon3)ccc21` [Example 818, 1-(3′-fluoro-3-methoxy-4-biphenylyl)-N-3-isoxazolyl-2-oxo-1,2-dihydro-6-quinolinesulfonamide] showed a pIC50 of 7.42.

In turn, `COc1cc(-c2cccc(C(F)(F)F)c2)c(F)cc1-n1c(=O)ccc2cc(S(=O)(=O)Nc3cccnn3)ccc21` [Example 820, 1-(2-fluoro-5-methoxy-3′-(trifluoromethyl)-4-biphenylyl)-2-oxo-N-3-pyridazinyl-1,2-dihydro-6-quinolinesulfonamide] showed a pIC50 of 7.74.
